The record followed here is US5811445A, “Method of preventing abnormal stimulation of AT1 and AT2 receptors” (Roussel Uclaf, priority 1994, dated 1998).

Assay [1] concerns the target T1, AT1 receptor of angiotensin II (Rattus norvegicus, UniProt P25095).
T1 construct: A fresh membrane preparation obtained from rat's liver is used; from tissue; host or cells: rat liver membranes
T1 sequence (P25095 1-359): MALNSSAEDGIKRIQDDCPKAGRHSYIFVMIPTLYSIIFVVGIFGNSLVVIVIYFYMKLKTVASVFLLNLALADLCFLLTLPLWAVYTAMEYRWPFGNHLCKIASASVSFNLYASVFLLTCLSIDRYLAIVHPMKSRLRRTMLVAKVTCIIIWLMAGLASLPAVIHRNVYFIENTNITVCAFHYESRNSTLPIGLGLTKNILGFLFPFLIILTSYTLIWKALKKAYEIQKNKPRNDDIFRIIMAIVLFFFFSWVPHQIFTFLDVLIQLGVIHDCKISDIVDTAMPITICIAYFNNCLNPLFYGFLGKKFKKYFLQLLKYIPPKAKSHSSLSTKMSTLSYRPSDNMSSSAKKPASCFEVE
The assay can be described thus: Test on the AT1 receptor of angiotensin II (displacement of 125I angiotensin II, rat liver membranes). It counts as binding. On the procedure:
1 - Test on the AT1 -receptor of angiotensin II
A fresh membrane preparation obtained from rat's liver is used. The tissue is ground up in a polytron in a 50 mM Tris buffer pH 7.4, the grinding is followed by 3 centrifugations at 30,000 g for 15 minutes with intermediate take up of the pellets in the Tris buffer pH 7.4.
(The product is first tested with 3×10^-5 M three times). When the tested product displaces more than 50% of the radioactivity specifically bound to the receptor, it is tested again according to a range of 7 concentrations in order to determine the concentration which inhibits by 50% the radioactivity specifically bound to the receptor. In this way the 50% inhibitory concentration is determined).
(§1) After incubation at 25° C. for 150 minutes, placing in a water-bath at 0° C. for 5 minutes, filtration under vacuum, and rinsing with Tris buffer pH 7.4, the radioactivity is counted in the presence of a scintillating solid.

The target of assay [2] is T2, AT2 receptor of angiotensin II (Oryctolagus cuniculus, UniProt G1T351).
T2 construct: A fresh membrane preparation obtained from rabbit's uterus is used; from tissue; host or cells: uterus membranes of estradiol-treated rabbits
T2 sequence (G1T351 1-363): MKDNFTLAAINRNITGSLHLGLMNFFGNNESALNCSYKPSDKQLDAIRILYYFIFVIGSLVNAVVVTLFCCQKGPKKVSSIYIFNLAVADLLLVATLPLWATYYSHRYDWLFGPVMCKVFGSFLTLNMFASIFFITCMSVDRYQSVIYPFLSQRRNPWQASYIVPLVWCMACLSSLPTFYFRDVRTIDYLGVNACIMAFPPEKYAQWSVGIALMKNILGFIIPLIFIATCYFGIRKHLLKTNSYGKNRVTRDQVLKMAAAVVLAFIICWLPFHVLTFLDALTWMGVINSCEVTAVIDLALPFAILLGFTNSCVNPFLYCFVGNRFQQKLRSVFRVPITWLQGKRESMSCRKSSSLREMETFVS
As to the kind of experiment: Test on the AT2 receptor of angiotensin II (displacement of 125I angiotensin II, rabbit uterus membranes). The format is binding. On the procedure: 2) Test on the AT2 receptor of angiotensin II
The tissue is ground up in a polytron in a 50 mM Tris buffer pH 7.4, and the grinding is followed by 3 centrifugations at 30,000 g for 15 minutes, with intermediate take up of the pellets in the Tris buffer pH 7.4.
The homogenate obtained is preincubated for 20 minutes at 25° C. in the presence of 10 mM dithiothreitol, then brought back to 0°-4° C.
The product is first tested at 3.10^-5 M three times. When the tested product displaces more than 50% of the radioactivity specifically bound to the receptor, it is tested again according to a range of 7 concentrations in order to determine the concentration which inhibits by 50% the radioactivity specifically bound to the receptor. In this way the 50% inhibitory concentration is determined.
as §1
On the technique in general: Displacement assays read how much labelled ligand stays bound in the presence of the test substance.

Setting [3] is: rat liver membrane, 125I angiotensin II, 25° C., 150 minutes, read-out: AT1 Receptor IC50.
[4] abbreviates: rabbit uterus membrane (estradiol pre-treated), 125I angiotensin II, 25° C., 150 minutes, read-out: AT2 Receptor IC50.
[5] abbreviates: products P1 to P13, expressed in nM, read-out: On AT1 receptor IC50.
The mark [6] stands for this setting: products P1 to P13, expressed in nM, read-out: On AT2 receptor IC50.

Where a name gives a salt, the structure may show the parent alone. Read-outs that look alike come from different tables or passages of the source.

On to `CCCCc1nc(SC)c(C(C)(O)C(=O)O)n1Cc1ccc(-c2ccccc2S(=O)(=O)NC(=O)NCCC)cc1` (stereo not drawn) [Example 9, 2-butyl alpha-hydroxy alpha-methyl 4-(methylthio) 1-[(2'-((((propylamino)carbonyl)amino)sulphonyl) (1,1'-biphenyl) 4-yl)methyl] 1H-imidazole 5-acetic acid], for which the IC50 in assay [1] (setting [3]) stood at 3.4 nM; in assay [2] (setting [4]), 8.5 nM.
The corresponding values for `CCCCc1nc(SC)c(C(C)(O)C(=O)O)n1Cc1ccc(-c2ccccc2S(=O)(=O)NC(=O)NCc2ccccc2)cc1` (stereo not shown) [Example 11] are 24 nM and 1.6 nM.
The corresponding values for `CCCCc1nc(SC)c(C(C)(O)C(=O)O)n1Cc1ccc(-c2ccccc2S(=O)(=O)NC(=O)NCC2CCCCC2)cc1` (stereo not drawn) [Example 13, 2-butyl 1-[(2'-(((((cyclohexylmethyl)amino)arbonyl)amino)sulphonyl) (1,1'-biphenyl) 4-yl)methyl] alpha-hydroxy alpha-methyl 4-(methylthio) 1H-imidazole 5-acetic acid] are 6.3 nM and 1.9 nM.
On the same counts, the results for `CCCc1nc(SC)c(C(O)C(=O)O)n1Cc1ccc(-c2ccccc2S(=O)(=O)NC(=O)NCc2ccccc2)cc1` (stereo not shown) [Example 21] are 2.5 nM and 6.5 nM.
As for `CCCc1nc(SC)c(C(O)(C(=O)O)c2ccccc2)n1Cc1ccc(-c2ccccc2S(=O)(=O)NC(=O)NCc2ccccc2)cc1` (stereo not drawn) [Example 34, alpha-hydroxy 4-(methylthio) alpha-phenyl 1-((2'-(((((phenylmethyl)amino)carbonyl)amino)sulphonyl) (1,1'-biphenyl) 4-yl)methyl) 2-propyl 1H-imidazole 5-acetic acid], the IC50 in assay [1] (setting [3]) turned out to be 0.7 nM; in assay [2] (setting [4]) it was 2.1 nM.
`CCc1nc(SC)c(C(=O)O)n1Cc1ccc(-c2ccccc2S(=O)(=O)NC(=O)NCc2ccccc2)cc1` [Example 44, 2-ethyl 4-(methylthio) 1-((2'-(((((phenylmethyl)amino)carbonyl)amino)sulphonyl) (1,1'-biphenyl) 4-yl)methyl) 1H-imidazole 5-carboxylic acid]: the IC50 in assay [1] (setting [3]) was found to be 0.06 nM.
As to `CCCc1nc(SC(F)F)c(C(=O)O)n1Cc1ccc(-c2ccccc2S(=O)(=O)NC(=O)CCC2CCCC2)cc1` [Example 54], the IC50 in assay [2] (setting [4]) was determined as 2.1 nM.
The same measure, in the same setting: then `CCCc1nc(SC(F)F)c(C(=O)O)n1Cc1ccc(-c2ccccc2S(=O)(=O)NC(=O)NCCC2=CCCCC2)cc1` [Example 56, 1-((2'-(((((2-cyclohexen-1-yl-ethyl)amino)carbonyl)amino)sulphonyl) (1,1'-biphenyl) 4-yl)methyl) 4-((difluoromethyl)thio) 2-propyl 1H-imidazole 5-carboxylic acid], with 5.8 nM.
Consider `CCCCc1nc(Cl)c(C(=O)O)n1Cc1ccc(-c2ccccc2S(=O)(=O)NC(=O)NCc2ccccc2)cc1` [Example 59], for which the IC50 in assay [1] (setting [3]) was found to be 0.08 nM.
For `CCCc1nc(SC)c(C(=O)O)n1Cc1ccc(-c2ccccc2S(=O)(=O)NC(=O)Nc2ccc(C)cc2)cc1` [Example 63, 1-((2'-(((((4-methylphenyl)amino)carbonyl)amino)sulphonyl) (1,1'-biphenyl) 4-yl)methyl) 4-(methylthio) 2-propyl 1H-imidazole 5-carboxylic acid], in assay [2] (setting [4]), the IC50 was 3.5 nM.
The same measure, in the same setting: then `CCc1nc(SC)c(C(=O)O)n1Cc1ccc(-c2ccccc2S(=O)(=O)NC(=O)NCC2CCCCC2)cc1` [Example 69, potassium 1-((2'-(((((cyclohexylmethyl)amino)carbonyl)amino)sulphonyl) (1,1'-biphenyl 4-yl)methyl) 2-ethyl 4-(methylthio) 1H-imidazole 5-carboxylate (potassium salt)], with 1.3 nM.
On to `CCCCc1nc(SC)c(C(=O)O)n1Cc1ccc(-c2ccccc2S(=O)(=O)NC(=O)NCc2ccccc2)cc1` [Example P2, 2-butyl 4-(methylthio) 1-[(2'-(((((phenylmethyl)amino)carbonyl)amino)sulphonyl) (1,1'-biphenyl) 4-yl)methyl] 1H-imidazole 5-carboxylic acid], for which the values for the IC50 in assay [1] (setting [5]) and in assay [2] (setting [6]) were 0.1 nM and 14 nM, respectively.
The corresponding values for `CCCCc1nc(SC)c(C(=O)O)n1Cc1ccc(-c2ccccc2S(=O)(=O)NC(=O)NCC(C)c2ccccc2)cc1` (stereo not drawn) [Example P3, 2-butyl 4-(methylthio) 1-[(2'-(((((1-beta-phenylpropyl)amino)carbonyl)amino)sulphonyl) (1,1'-biphenyl) 4-yl)methyl] 1H-imidazole 5-carboxylic acid] are 1.1 nM and 11 nM.
In the case of `CCCCc1nc(SC)c(C(=O)O)n1Cc1ccc(-c2ccccc2S(=O)(=O)NC(=O)NCCCCc2ccccc2)cc1` [Example P4, 2-butyl 4-(methylthio) 1-[(^2 '-(((((1-(4-phenylbutyl))amino)carbonyl)amino)sulphonyl) (1,1'-biphenyl) 4-yl)methyl] 1H-imidazole 5-carboxylic acid], the IC50 is 0.5 nM in assay [1] (setting [5]) and 47 nM in assay [2] (setting [6]).
Turning to `CCCCc1nc(SC)c(C(=O)O)n1Cc1ccc(-c2ccccc2S(=O)(=O)NC(=O)NCc2ccc(OC)cc2)cc1` [Example P5, 2-butyl 1-[(2'-((((((4-methoxy)phenylmethyl)amino)carbonyl)amino)sulphonyl) (1,1'-biphenyl) 4-yl)methyl] 4-methylthio 1H-imidazole 5-carboxylic acid], the values for the concentration for half-maximal inhibition (IC50) in assay [1] (setting [5]) and in assay [2] (setting [6]) were 0.3 nM and 25 nM, respectively.
The corresponding values for `CCCCc1nc(SC)c(C(=O)O)n1Cc1ccc(-c2ccccc2S(=O)(=O)NC(=O)NCc2ccc(F)cc2)cc1` [Example P6, 2-butyl 1-[(2'-((((((4-fluoro)phenylmethyl)amino)carbonyl)amino)sulphonyl) (1,1,1-biphenyl) 4-yl)methyl] 4-methylthio 1H-imidazole 5-carboxylic acid] are 0.27 nM and 10 nM.
With `CCCCc1nc(SC)c(C(=O)O)n1Cc1ccc(-c2ccccc2S(=O)(=O)NC(=O)NC(Cc2ccccc2)C(=O)O)cc1` (stereo not shown) [Example P7, 2-butyl 1-[(2'-(((((1-(1-carboxy 2-phenyl)ethyl)amino)carbonyl)amino)sulphonyl) (1,1'-biphenyl) 4-yl)methyl] 4-methylthio 1H-imidazole 5-carboxylic acid], the IC50 worked out at 0.4 nM in assay [1] (setting [5]) and 49 nM in assay [2] (setting [6]).
The corresponding values for `CCCCc1nc(SC)c(C(=O)O)n1Cc1ccc(-c2ccccc2S(=O)(=O)NC(=O)OCc2cccs2)cc1` [Example P8, 2-butyl 4-(methylthio) 1-[(2'-((((2-thienyl)methoxycarbonyl)amino)sulphonyl) (1,1'-biphenyl) 4-yl)methyl] 1H-imidazole 5-carboxylic acid] are 0.14 nM and 17 nM.
For `CCCCc1nc(SC)c(C(=O)O)n1Cc1ccc(-c2ccccc2S(=O)(=O)NC(=O)OCc2ccsc2)cc1` [Example P9, 2-butyl 4-(methylthio) 1-[(2'-((((3-thienyl)methoxycarbonyl)amino)sulphonyl) (1,1'-biphenyl) 4-yl)methyl] 1H-imidazole 5-carboxylic acid], the IC50 turned out to be 0.19 nM in assay [1] (setting [5]) and 53 nM in assay [2] (setting [6]).
The corresponding values for `CCCCc1nc(SC)c(C(=O)O)n1Cc1ccc(-c2ccccc2S(=O)(=O)NC(=O)OCC2CC=CCC2)cc1` (stereo not shown) [Example P10, 2-butyl 1-[(2'-((((cyclohexen 4-yl)methoxycarbonyl)amino)sulphonyl) (1,1'-biphenyl) 4-yl)methyl] 4-methylthio 1H-imidazole 5-carboxylic acid] are 0.7 nM and 31 nM.

The IC50 is the concentration that inhibits the measured activity by half.
